Test results as given in US11058668B2 (EIDOS THERAPEUTICS, INC., priority 2018, dated 2021).
Several values for one entry are separate records, joined by “and”; a condition that tells them apart may be missing. Identical values can stand only once.

Experiments:
TTR [1] = biological target: T1, TTR (Homo sapiens, UniProt P02766); assay: Isothermal titration calorimetry (ITC) with TTR in buffer; conditions: 25° C.; for Kd: PBS pH 7.4, single-site binding model
Experimental: (§1) Isothermal Titration Calorimetry (ITC). Binding experiments were performed using MicroCal PEAQ-ITC at 25° C. […] 19 injections of ligand (2.0 μL each) were injected into the ITC cell (at 25° C.) to the point that TTR was fully saturated with ligand. Calorimetric data were plotted and fitted using the standard single-site binding model.

TTR in human serum = biological target: T2, TTR in human serum (Homo sapiens, UniProt P02766); assay: FPE assay in human serum; type: binding; conditions: stabilizers 10 μM, human serum TTR 5 μM; FPE
T2 construct: pooled human serum (prepared from human male AB plasma, Sigma; catalog no; H4522; TTR concentration 5 μM); tissue Sigma H4522; host or cells: pooled human serum from human male AB plasma
Excerpt: FPE assay for binding TTR in buffer and human or dog serum. […] The FPE probe is a thioester TTR ligand that is not fluorescent by itself, however upon binding to the T4 binding site of TTR it covalently modifies lysine 15 (K15), creating a fluorescent conjugate. Ligands that bind to the T4 site of TTR will decrease FPE probe binding as observed by lower fluorescence. […] The change in fluorescence (λex=328 nm and λem=384 nm) were monitored using a microplate spectrophotometer reader (SpectraMax M5) for 6 hr at rt. […] The change in fluorescence (λex=328 nm and λem=384 nm) were monitored using a microplate spectrophotometer reader (SpectraMax M5) for 6 hr at rt.

TTR [2] = assay: Phase 2 study in ATTR-CM patients, serum TTR concentration (ARUP Prealbumin assay); type: in vivo, human; conditions: all genotypes, ATTR-CM patients
Experimental: Screening and randomization will be followed by a 28-day blinded, placebo-controlled treatment period. Approximately 45 subjects are planned to enroll in the Phase 2 study.
An ARUP Prealbumin assay was also used to analyze TTR blood serum concentration in the MAD cohorts tested. ARUP analyzes samples for prealbumin using the prealbumin reagent kit provided by Roche Diagnostics and run on the Roche Diagnostics c702 module. Lowest reportable limit is 3 mg/dL.
The phase 2 clinical study was performed essentially as described in Example 3. A total of 49 patents were included instead of 45: 16 receiving 400 mg bid; 16 receiving 800 mg bid; and 17 receiving placebo.
TTR stabilization was measured ex vivo using the FPE and Western blot assays described at the beginning of the examples section. TTR stabilization was measured in vivo by monitoring TTR serum concentrations in trial participants.

TTR [3] = biological target: T3, TTR (Canis lupus familiaris, UniProt A0A8I3NFK0); assay: Single oral dose PK-PD in dogs, TTR occupancy by FPE; type: in vivo, beagle dog; conditions: 5 or 20 mg/kg AG10 HCl single oral dose
T3 construct: from tissue; host or cells: serum of orally dosed beagle dogs
Experimental: FPE assay for binding TTR in buffer and human or dog serum. […] The FPE probe is a thioester TTR ligand that is not fluorescent by itself, however upon binding to the T4 binding site of TTR it covalently modifies lysine 15 (K15), creating a fluorescent conjugate. Ligands that bind to the T4 site of TTR will decrease FPE probe binding as observed by lower fluorescence. The FPE assay was also adapted for use with dog serum. FPE with TTR in buffer: An aliquot of 98 μL of TTR in PBS (pH 7.4, final concentration: 2.5 μM) was mixed with 1 μL of test compounds (2.5 μM) and 1 μL of FPE probe (0.18 mM stock solution in DMSO: final concentration: 1.8 μM). The change in fluorescence (λex=328 nm and λem=384 nm) were monitored using a microplate spectrophotometer reader (SpectraMax M5) for 6 hr at rt. […] The change in fluorescence (λex=328 nm and λem=384 nm) were monitored using a microplate spectrophotometer reader (SpectraMax M5) for 6 hr at rt.
Blood was collected and analyzed pre-dose and at 2, 4, 6, 8, 12 and 24 hr post-dose.

TTR [4] = biological target: T1, TTR; conditions: Tafamidis Phase 2 (FDA CDER background package); diflunisal observational study (Hanson 2018); cited from earlier work
[5] = pKa values of stabilizers; type: physicochemical; conditions: carboxylic acid group
[6] = biological target: T4, human serum albumin (HSA) (Homo sapiens, UniProt P02768); assay: Gel filtration and dialysis binding to human serum albumin; set-up: albumin from human serum; Sigma Aldrich, catalog no.: A3782; purchased Sigma Aldrich A3782; host or cells: human serum; conditions: 30 μM compound, 600 μM albumin
T4 sequence (P02768 25-609): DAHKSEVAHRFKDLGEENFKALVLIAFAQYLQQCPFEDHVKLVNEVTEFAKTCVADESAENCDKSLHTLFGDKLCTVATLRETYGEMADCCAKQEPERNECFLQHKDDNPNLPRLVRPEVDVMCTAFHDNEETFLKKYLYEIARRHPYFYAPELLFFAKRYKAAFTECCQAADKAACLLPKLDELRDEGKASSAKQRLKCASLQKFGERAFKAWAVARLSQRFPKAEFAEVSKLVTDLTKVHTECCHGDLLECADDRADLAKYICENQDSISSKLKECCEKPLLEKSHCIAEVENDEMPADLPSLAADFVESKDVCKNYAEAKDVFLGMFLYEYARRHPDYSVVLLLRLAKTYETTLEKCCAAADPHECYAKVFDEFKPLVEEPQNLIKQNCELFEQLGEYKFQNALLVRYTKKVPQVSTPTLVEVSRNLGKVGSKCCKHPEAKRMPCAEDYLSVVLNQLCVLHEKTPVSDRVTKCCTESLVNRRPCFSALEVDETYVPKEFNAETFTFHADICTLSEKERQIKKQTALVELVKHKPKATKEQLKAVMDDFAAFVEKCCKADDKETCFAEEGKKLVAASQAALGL
Experimental: The concentration of HSA (i.e. concentration at time zero) was also determined using NanoDrop™ (based on calibration curves of known HAS concentrations). […] The concentration of test compounds in these fractions (i.e. conc. at time zero) was evaluated using HPLC (based on calibration curves of known concentration of test compounds). 500 μL of each HSA/test compound samples was then added to a Slide-A-Lyzer Dialysis Cassette G2 (3.5K MWCO, Thermo Scientific, catalog no. P187722). The dialysis Cassettes were placed in 100 ml of assay buffer and stirred at room temperature. After 24 hr, the samples were removed from dialysis cassette and the volume was measured. The concentration of HAS and test compounds were determined using NanoDrop™ and HPLC as described above.

[7] = biological target: T4, human serum albumin (HSA); assay: ITC against human serum albumin; conditions: ITC titration against human serum albumin
Experimental: as §1

purified human TTRwt = purified human TTRwt (Homo sapiens, UniProt P02766); assay: Modified FPE assay with purified TTR plus other serum proteins (selectivity); type: binding; conditions: purified TTR 5 μM
Experimental: The percentage of FPE probe binding to TTR in the presence of serum proteins measured after 3 hr of incubation was used to calculate % TTR occupancy.

| SMILES | TΔS (TTR [1]) [kcal/mol] | ΔG (TTR [1]) [kcal/mol] | ΔH (TTR [1]) [kcal/mol] | Kd (TTR [1]) [nM] | other results |
| --- | --- | --- | --- | --- | --- |
| Cc1n[nH]c(C)c1CCCOc1cc(C(=O)O)ccc1I [compound 1, 3-(3-(3,5-dimethyl-1H-pyrazol-4-yl)propoxy)-4-iodobenzoic acid] | -0.21 | -9.61 | -9.82 | 90 ± 14 | % TTR Occupancy in Serum (2:1 ratio) (TTR in human serum): 75.9 ± 3.1% |
| Cc1nn(C)c(C)c1CCCOc1cc(C(=O)O)ccc1F [compound 3, 4-fluoro-3-(3-(1,3,5-trimethyl-1H-pyrazol-4-yl)propoxy)benzoic acid] | 4.27 | -9.0 | -4.73 | 251 ± 12 |  |
| Cc1n[nH]c(C)c1CCCOc1cc(C(=O)O)ccc1F.Cl [AG10 HCl] |  |  |  |  | Blood Serum TTR Concentration, Average Change (baseline to day 28) (TTR [2]; 400 mg b.i.d.): 36%; Blood Serum TTR Concentration, Average Change (baseline to day 28) (TTR [2]; 800 mg b.i.d.): 50%; TTR occupancy, dose comparison (TTR [3]): enhanced TTR occupancy in the 20 mg/kg vs. 5 mg/kg dose groups |
| O=C(O)c1cc(-c2ccc(F)cc2F)ccc1O [Diflunisal, reference compound] | 0.34 |  | -8.38 |  | change in serum TTR levels (TTR [4]): increased serum TTR levels; pKa [5]: 2.94 |
| CCc1n[nH]c(CC)c1CCCOc1cc(C(=O)O)ccc1F [compound 4, 3-(3-(3,5-diethyl-1H-pyrazol-4-yl)propoxy)-4-fluorobenzoic acid] | 6.0 | -8.1 | -2.1 | 1250 ± 79 |  |
| O=C(O)c1ccc2nc(-c3cc(Cl)cc(Cl)c3)oc2c1 [Tafamidis, 2-(3,5-dichlorophenyl)-1,3-benzoxazole-6-carboxylic acid, reference compound] | 6.39 |  | -5.0 |  | concentration bound to HSA following dialysis vs buffer for 24 hr [6]: 18.8 ± 2.1 µM; concentration bound to albumin at time 0 (immediately after gel filtration) [6]: 24.1 ± 1.1 µM; Kd [7]: 2300 nM; ΔH (TTR [1]; listed as tafamidis): -5.00 kcal/mol and -5.0 kcal/mol; TTR occupancy (purified human TTRwt; in the absence of albumin): 68.2±0.1%; TTR occupancy (purified human TTRwt; in the presence of albumin (600 μM)): 41.5±0.9%; change in serum TTR levels (TTR [4]): increased serum TTR levels; pKa [5]: 3.73 |
| COC(=O)c1ccc(F)c(OCCCc2c(C)n[nH]c2C)c1 [compound 2, Methyl 3-(3-(3,5-dimethyl-1H-pyrazol-4-yl)propoxy)-4-fluorobenzoate] | 2.5 | -8.99 | -6.49 | 258 ± 17 |  |
